From ChEMBL document CHEMBL1201862, “PubChem BioAssay data set” (2004)
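Cells were grown in 96-well plates and exposed to each compound for 48 hours at five concentrations; endpoints were interpolated linearly between bracketing concentrations, or set to the highest concentration if not reached. GI50 marks 50% less growth.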 Activity calls are given as the source filed them. No stated cut-off is given here; in the data, active = GI50 up to about 1.1 µM and inactive = higher.

Key:
Experiment in all cases: NCI-60 cell line screen, 48 h
NCI-H460 = test system: NCI-H460
MDA-MB-231 = test system: MDA-MB-231
MDA-N = test system: MDA-N
HOP-92 = test system: HOP-92
SNB-19 = test system: SNB-19
UACC-62 = test system: UACC-62
SK-OV-3 = test system: SK-OV-3
A549 = test system: A549
HL-60 = test system: HL-60
HT-29 = test system: HT-29
Hs-578T = test system: Hs-578T
SF-295 = test system: SF-295
MOLT-4 = test system: MOLT-4
UACC-257 = test system: UACC-257
CCRF-CEM = test system: CCRF-CEM
U-251 = test system: U-251
SNB-75 = test system: SNB-75
TK-10 = test system: TK-10
BT-549 = test system: BT-549
LOX IMVI = test system: LOX IMVI
EKVX = test system: EKVX
OVCAR-5 = test system: OVCAR-5
A498 = test system: A498
786-0 = test system: 786-0
UO-31 = test system: UO-31
IGROV-1 = test system: IGROV-1
NCI-H23 = test system: NCI-H23
HCT-15 = test system: HCT-15
KM12 = test system: KM12
OVCAR-8 = test system: OVCAR-8
M14 = test system: M14
HCC 2998 = test system: HCC 2998
HOP-62 = test system: HOP-62
SR = test system: SR
HCT-116 = test system: HCT-116
SK-MEL-2 = test system: SK-MEL-2
CAKI-1 = test system: CAKI-1
RPMI-8226 = test system: RPMI-8226
DU-145 = test system: DU-145
MDA-MB-435 = test system: MDA-MB-435
Malme-3M = test system: Malme-3M
NCI/ADR-RES = test system: NCI/ADR-RES
SK-MEL-5 = test system: SK-MEL-5
SN12C = test system: SN12C
SF-268 = test system: SF-268
MCF7 = test system: MCF7
COLO 205 = test system: COLO 205
SW-620 = test system: SW-620
T47D = test system: T47D
RXF 393 = test system: RXF 393
ACHN = test system: ACHN
SK-MEL-28 = test system: SK-MEL-28
K562 = test system: K562
OVCAR-4 = test system: OVCAR-4
NCI-H522 = test system: NCI-H522
SF-539 = test system: SF-539
PC-3 = test system: PC-3
NCI-H226 = test system: NCI-H226
OVCAR-3 = test system: OVCAR-3

COc1cc2c(cc1OC)C1CN3C(=O)CCC3C(O)C1c1cc(OC)c(OC)cc1-2 (stereo not drawn)
GI50 (NCI-H460): > 100 µM (inactive)
GI50 (MDA-MB-231): > 100 µM (inactive)
GI50 (MDA-N): > 100 µM (inactive)
GI50 (HOP-92): > 100 µM (inactive)
GI50 (SNB-19): > 100 µM (inactive)
GI50 (UACC-62): > 100 µM (inactive)
GI50 (SK-OV-3): > 100 µM (inactive)
GI50 (A549): > 100 µM (inactive)
GI50 (HL-60): > 100 µM (inactive)
GI50 (HT-29): > 100 µM (inactive)
GI50 (Hs-578T): > 100 µM (inactive)
GI50 (SF-295): > 100 µM (inactive)
GI50 (MOLT-4): > 100 µM (inactive)
GI50 (UACC-257): > 100 µM (inactive)
GI50 (CCRF-CEM): > 100 µM (inactive)
GI50 (U-251): > 100 µM (inactive)
GI50 (SNB-75): 20.9 µM (inactive)
GI50 (TK-10): > 100 µM (inactive)
GI50 (BT-549): > 100 µM (inactive)
GI50 (LOX IMVI): > 100 µM (inactive)
GI50 (EKVX): > 100 µM (inactive)
GI50 (OVCAR-5): > 100 µM (inactive)
GI50 (A498): > 100 µM (inactive)
GI50 (786-0): > 100 µM (inactive)
GI50 (UO-31): > 100 µM (inactive)
GI50 (IGROV-1): > 100 µM (inactive)
GI50 (NCI-H23): > 100 µM (inactive)
GI50 (HCT-15): > 100 µM
GI50 (KM12): > 100 µM (inactive)
GI50 (OVCAR-8): > 100 µM (inactive)
GI50 (M14): > 100 µM (inactive)
GI50 (HCC 2998): > 100 µM (inactive)
GI50 (HOP-62): > 100 µM (inactive)
GI50 (SR): > 100 µM (inactive)
GI50 (HCT-116): > 100 µM (inactive)
GI50 (SK-MEL-2): > 100 µM (inactive)
GI50 (CAKI-1): > 100 µM (inactive)
GI50 (RPMI-8226): > 100 µM (inactive)
GI50 (DU-145): > 100 µM (inactive)
GI50 (MDA-MB-435): > 100 µM (inactive)
GI50 (Malme-3M): > 100 µM (inactive)
GI50 (NCI/ADR-RES): > 100 µM (inactive)
GI50 (SK-MEL-5): > 100 µM (inactive)
GI50 (SN12C): > 100 µM (inactive)
GI50 (SF-268): > 100 µM (inactive)
GI50 (MCF7): > 100 µM (inactive)
GI50 (COLO 205): > 100 µM (inactive)
GI50 (SW-620): > 100 µM (inactive)
GI50 (T47D): > 100 µM (inactive)
GI50 (RXF 393): > 100 µM (inactive)
GI50 (ACHN): > 100 µM (inactive)
GI50 (SK-MEL-28): > 100 µM (inactive)
GI50 (K562): > 100 µM (inactive)
GI50 (OVCAR-4): > 100 µM (inactive)
GI50 (NCI-H522): > 100 µM (inactive)

CC1(C)CC(=O)C2=C(C1)NC1=C(C(=O)CC(C)(C)C1)C2c1ccc([N+](=O)[O-])cc1
GI50 (NCI-H460): > 100 µM (inactive)
GI50 (MDA-MB-231): > 100 µM (inactive)
GI50 (MDA-N): > 100 µM (inactive)
GI50 (HOP-92): > 100 µM (inactive)
GI50 (SNB-19): > 100 µM (inactive)
GI50 (UACC-62): > 100 µM (inactive)
GI50 (SK-OV-3): > 100 µM (inactive)
GI50 (A549): > 100 µM (inactive)
GI50 (HL-60): > 100 µM (inactive)
GI50 (HT-29): > 100 µM (inactive)
GI50 (Hs-578T): > 100 µM (inactive)
GI50 (SF-295): > 100 µM (inactive)
GI50 (MOLT-4): > 100 µM (inactive)
GI50 (UACC-257): > 100 µM (inactive)
GI50 (SF-539): > 100 µM (inactive)
GI50 (U-251): > 100 µM (inactive)
GI50 (SNB-75): 16.7 µM (inactive)
GI50 (TK-10): > 100 µM (inactive)
GI50 (BT-549): > 100 µM (inactive)
GI50 (LOX IMVI): > 100 µM (inactive)
GI50 (EKVX): > 100 µM (inactive)
GI50 (OVCAR-5): > 100 µM (inactive)
GI50 (PC-3): > 100 µM (inactive)
GI50 (A498): > 100 µM (inactive)
GI50 (786-0): > 100 µM (inactive)
GI50 (UO-31): > 100 µM (inactive)
GI50 (IGROV-1): > 100 µM (inactive)
GI50 (NCI-H23): > 100 µM (inactive)
GI50 (HCT-15): > 100 µM
GI50 (KM12): > 100 µM (inactive)
GI50 (OVCAR-8): > 100 µM (inactive)
GI50 (M14): > 100 µM (inactive)
GI50 (HCC 2998): > 100 µM (inactive)
GI50 (HOP-62): > 100 µM (inactive)
GI50 (HCT-116): > 100 µM (inactive)
GI50 (SK-MEL-2): > 100 µM (inactive)
GI50 (CAKI-1): > 100 µM (inactive)
GI50 (RPMI-8226): > 100 µM (inactive)
GI50 (DU-145): > 100 µM (inactive)
GI50 (MDA-MB-435): > 100 µM (inactive)
GI50 (SK-MEL-5): > 100 µM (inactive)
GI50 (SN12C): > 100 µM (inactive)
GI50 (SF-268): > 100 µM (inactive)
GI50 (MCF7): > 100 µM (inactive)
GI50 (COLO 205): > 100 µM (inactive)
GI50 (SW-620): > 100 µM (inactive)
GI50 (T47D): > 100 µM (inactive)
GI50 (RXF 393): > 100 µM (inactive)
GI50 (ACHN): > 100 µM (inactive)
GI50 (SK-MEL-28): > 100 µM (inactive)
GI50 (K562): > 100 µM (inactive)
GI50 (NCI-H226): > 100 µM (inactive)
GI50 (OVCAR-4): > 100 µM (inactive)
GI50 (NCI-H522): > 100 µM (inactive)
GI50 (OVCAR-3): > 100 µM (inactive)

CC(NC(=O)c1c(O)[nH]c(=S)[nH]c1=O)c1ccc([N+](=O)[O-])cc1 (stereo not drawn)
GI50 (NCI-H460): > 100 µM (inactive)
GI50 (MDA-MB-231): 60.7 µM (inactive)
GI50 (MDA-N): > 100 µM (inactive)
GI50 (HOP-92): 39.7 µM (inactive)
GI50 (SNB-19): 57.5 µM (inactive)
GI50 (UACC-62): 77.3 µM (inactive)
GI50 (SK-OV-3): > 100 µM (inactive)
GI50 (A549): > 100 µM (inactive)
GI50 (HL-60): > 100 µM (inactive)
GI50 (HT-29): > 100 µM (inactive)
GI50 (Hs-578T): > 100 µM (inactive)
GI50 (SF-295): > 100 µM (inactive)
GI50 (MOLT-4): 29.1 µM (inactive)
GI50 (UACC-257): > 100 µM (inactive)
GI50 (CCRF-CEM): 40.8 µM (inactive)
GI50 (SF-539): 82.2 µM (inactive)
GI50 (U-251): 32.5 µM (inactive)
GI50 (SNB-75): 17.9 µM (inactive)
GI50 (TK-10): > 100 µM (inactive)
GI50 (BT-549): > 100 µM (inactive)
GI50 (LOX IMVI): 90.8 µM (inactive)
GI50 (EKVX): > 100 µM (inactive)
GI50 (OVCAR-5): > 100 µM (inactive)
GI50 (PC-3): 40.7 µM (inactive)
GI50 (786-0): 94.6 µM (inactive)
GI50 (UO-31): > 100 µM (inactive)
GI50 (IGROV-1): > 100 µM (inactive)
GI50 (NCI-H23): 88.1 µM (inactive)
GI50 (HCT-15): > 100 µM
GI50 (KM12): 47.6 µM (inactive)
GI50 (M14): > 100 µM (inactive)
GI50 (HCC 2998): 35.8 µM (inactive)
GI50 (HOP-62): 58.3 µM (inactive)
GI50 (HCT-116): 61 µM (inactive)
GI50 (SK-MEL-2): 32.5 µM (inactive)
GI50 (CAKI-1): > 100 µM (inactive)
GI50 (RPMI-8226): > 100 µM (inactive)
GI50 (DU-145): 75.7 µM (inactive)
GI50 (MDA-MB-435): > 100 µM (inactive)
GI50 (SK-MEL-5): > 100 µM (inactive)
GI50 (SN12C): > 100 µM (inactive)
GI50 (SF-268): 52.8 µM (inactive)
GI50 (MCF7): 71 µM (inactive)
GI50 (COLO 205): > 100 µM (inactive)
GI50 (SW-620): > 100 µM (inactive)
GI50 (T47D): 37.2 µM (inactive)
GI50 (RXF 393): > 100 µM (inactive)
GI50 (ACHN): > 100 µM (inactive)
GI50 (SK-MEL-28): > 100 µM (inactive)
GI50 (K562): 43.7 µM (inactive)
GI50 (NCI-H226): 70.1 µM (inactive)
GI50 (OVCAR-4): 49 µM (inactive)
GI50 (OVCAR-3): 36.1 µM (inactive)
